Data on one compound can be found in US20230139944A1, “TARGETING ALPHA3BETA1 INTEGRIN FOR TREATMENT OF CANCER AND OTHER DISEASES” (Board of Regents, The University of Texas System, priority 2019, published 2023).

Structures are written as SMILES.

One experiment concerns FAK and PYK2. Put plainly: Col1 homotrimer-induced signaling with FAK inhibitor, Western blotting. Type of experiment: cell-based, mouse. Conditions: VS-4718 1 μM, 16 hours, KPPC; Col1^pdxKO cancer cells, col1 homotrimers 50 μg/mL.
Experiment [1] relates to activation of FAK, AKT, and ERK in KPPC; Col1^pdxKO cancer cells. The experiment in a line: Col1 homotrimer-induced pro-survival signaling examined by Western blotting. Type of experiment: cell-based, mouse. The note with it: VS-4718 1 μM, 16 hours, col1 homotrimers 50 μg/mL. On the procedure:
FIGS. 1A-1D. Type I collagen homotrimers induce pro-survival signaling through α3β1 integrin. KPPC; Col1^pdxKO cancer cells were transfected with siRNAs of DDR1 (A,B), integrin β1 (C), or integrin α3 (D). Cells were then incubated with DMEM medium with 1% FBS for 6 hours before the treatment with col1 homotrimers or heterotrimers (50 μg/mL) for 16 hours. Cells were harvested, lysed, and examined for indicated proteins by Western blotting.
(§1) FIGS. 2A-2H. Type I collagen homotrimers induce persistent proliferation signals via integrins. (A,B) KPPC; Col1^pdxKO cancer cells were transfected with siRNAs of integrins β1 (A), α1, α2, or α3 (B). Cells were then incubated with DMEM medium with 1% FBS for 6 hours before the treatment with col1 homotrimers or heterotrimers (50 μg/mL) for 16 hours. Cells were harvested, lysed, and examined by Western blotting. (C) Expression levels of selected integrin subunits in KPPC; Col1^pdxKO cancer cells. (D) Expression levels of selected integrin subunits human PDAC cell lines (Panc1, BxPC3, MiaPaca2, PSN1, HPAC, CAPAN1) based on RNA-seq data from the Broad Institute Cancer Cell Line Encyclopedia (CCLE) database. RMA (Robust Multi-array Average algorithm) normalization was used and data are the log 2 gene expression signal. […] Percent area of ADM and PanIN lesions was quantified. * P<0.05. […]

The test system of experiment [2] is KPPC mice (ADM and PanIN lesions). The experiment in a line: FAK inhibitor (FAKi) treatment in vivo, H&E-stained pancreas sections. More on the design: species or system mouse. Conditions: oral gavage 50 mg/kg twice per day for 7 days. The method, then:
as §1, with “signal. (E) Expression profile of integrin α3 (Itga3) among various cell clusters from KPPC tumors, as shown in t-SNE plot using the single cell RNA sequencing analysis. (F) Representative images of integrin α3 IHC staining on KPPC tumor sections. Scale bar: 100 μm. (G) KPPC; Col1^pdxKO cancer cells growing in 6-well plates were cultured with regular medium (DMEM with 10% FBS) to reach 60% confluence.” for “signal.”

Consider `CNC(=O)c1ccccc1Nc1cc(Nc2ccc(N3CCOCC3)cc2OC)ncc1C(F)(F)F` [VS-4718], for which the “inhibition of FAK and PYK2” value in the experiment with FAK and PYK2 is “inhibited FAK and PYK2”. Besides, the “col1 homotrimer induced activation of FAK, AKT, and ERK” value in experiment [1] was “abrogated”. Moreover, the “early PanIN progression (percent area of ADM and PanIN lesions)” value in experiment [2] is given as “inhibited early PanIN progression”.
